One assay concerns FoxO3a. Put plainly: FoxO3a inhibition assay (GFP-FoxO3a nuclear to cytoplasmic translocation) in U2OS GFP-FoxO3a H212R reporter cells. Type of assay: cell-based. Conditions: Homo sapiens, 0.5 h, serum starved overnight, 30 minutes compound treatment, ratio of nuclear to cytosolic GFP intensity, AC50 = concentration that results in 50% activation or inhibition, read-out: FoxO AC50. An outline of the steps: (§1)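 Serum-starved (overnight) cells treated with compounds at various doses for 30 min, then fixed in 4% paraformaldehyde and stained overnight at 4 °C for pAkt S473 with Hoechst nuclear counterstain; high-content imaging. FoxO3a readout: nuclear/cytosolic GFP ratio (%); Akt readout: total cellular pAkt intensity (%); DMSO = 0% activity.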

The next assay deals with Akt. The assay can be described thus: Akt activation assay (Phospho-AKT (Ser473) antibody staining) in U2OS GFP-FoxO3a H212R reporter cells. In kind it is cell-based. Particulars: Homo sapiens, 0.5 h, serum starved overnight, 30 minutes compound treatment, total cellular intensity of Phospho-Akt (Ser473) antibody staining, AC50 = concentration that results in 50% activation or inhibition. An outline of the steps:
as §1

The values below come from patent US10633350B2, “Diphenyl derivatives and uses thereof” (NOVARTIS AG, priority 2017, dated 2020).

The term AC50 denotes the concentration giving half of the maximal activity seen. `Cc1cc(C(N)=O)nn1-c1ccc(Cc2ccc(-c3ccnc(C(C)(C)O)c3)cc2)cc1` [Example 23, 1-(4-(4-(2-(2-hydroxypropan-2-yl)pyridin-4-yl)benzyl)phenyl)-5-methyl-1H-pyrazole-3-carboxamide]: the figures for the AC50 in the assay with FoxO3a and with Akt were 121 nM and 639 nM, respectively.

As to `Cc1cc(C(N)=O)nn1-c1ccc(Cc2ccc(-c3ccc(C(=O)N4CCNCC4)cc3)cc2)cc1` [Example 24, 5-methyl-1-(4-((4′-(piperazine-1-carbonyl)-[1,1′-biphenyl]-4-yl)methyl)phenyl)-1H-pyrazole-3-carboxamide], the AC50 in the assay on FoxO3a amounted to 33 nM; in the assay with Akt, 155 nM.

Turning to `Cc1nc(C(N)=O)nn1-c1ccc(Cc2ccc(-c3ccc(C(=O)N4CCNCC4)cc3)cc2)cc1` [Example 25, 5-methyl-1-(4-((4′-(piperazine-1-carbonyl)-[1,1′-biphenyl]-4-yl)methyl)phenyl)-1H-1,2,4-triazole-3-carboxamide], the AC50 in the assay with FoxO3a is 135 nM; with Akt, 726 nM.

With `Cc1cc(C(N)=O)nn1-c1ccc(Cc2ccc(-c3ccc(C(=O)N4CCNCC4)nc3)cc2)cc1` [Example 26, 5-methyl-1-(4-(4-(6-(piperazine-1-carbonyl)pyridin-3-yl)benzyl)phenyl)-1H-pyrazole-3-carboxamide], the AC50 in the assay on FoxO3a is 75 nM; in the assay with Akt, 480 nM.

Turning to `Cc1cc(C(N)=O)nn1-c1ccc(Cc2ccc(-c3ccc(C(=O)N4CCN[C@@H](CO)C4)cc3)cc2)cc1` [Example 28, (R)-1-(4-((4′-(3-(hydroxymethyl)piperazine-1-carbonyl)-[1,1′-biphenyl]-4-yl)methyl)phenyl)-5-methyl-1H-pyrazole-3-carboxamide], the AC50 in the assay with FoxO3a was 26 nM; with Akt, 73 nM.

Turning to `Cc1nc(C(N)=O)nn1-c1ccc(Cc2ccc(-c3ccc(C(=O)N4CCN[C@@H](C)C4)cc3)cc2)cc1` [Example 29, (S)-5-methyl-1-(4-((4′-(3-methylpiperazine-1-carbonyl)-[1,1′-biphenyl]-4-yl)methyl)phenyl)-1H-1,2,4-triazole-3-carboxamide], the AC50 is 138 nM in the assay on FoxO3a and 486 nM with Akt.

Take `Cc1cc(C(N)=O)nn1-c1ccc(Cc2ccc(-c3ccc(C(=O)NC4CNC4)cc3)cc2)cc1` [Example 30, 1-(4-((4′-(azetidin-3-ylcarbamoyl)-[1,1′-biphenyl]-4-yl)methyl)phenyl)-5-methyl-1H-pyrazole-3-carboxamide]: the AC50 stood at 237 nM in the assay with FoxO3a and 802 nM with Akt.

For `Cc1cc(C(N)=O)nn1-c1ccc(Cc2ccc(-c3ccc(CN4CCNCC4)nc3)cc2)cc1` [Example 31-1, 5-methyl-1-(4-(4-(6-(piperazin-1-ylmethyl)pyridin-3-yl)benzyl)phenyl)-1H-pyrazole-3-carboxamide], the AC50 was 77 nM in the assay with FoxO3a and 354 nM in the assay on Akt.

As to `Cc1cc(C(N)=O)nn1-c1ccc(Cc2ccc(-c3ccnc(CN4CCNCC4)c3)cc2)cc1` [Example 31-2], the concentration at half-maximal activity (AC50) in the assay with FoxO3a was 373 nM; with Akt, 1620 nM.

In the case of `Cc1cc(C(N)=O)nn1-c1ccc(Cc2ccc(-c3ccc(CN4CCNCC4)cn3)cc2)cc1` [Example 31-3, 5-methyl-1-(4-(4-(5-(piperazin-1-ylmethyl)pyridin-2-yl)benzyl)phenyl)-1H-pyrazole-3-carboxamide], the AC50 in the assay on FoxO3a was found to be 158 nM; in the assay with Akt, 190 nM.

As for `Cc1cc(C(N)=O)nn1-c1ccc(Cc2ccc(-c3ccc(CN4CCN(CCO)CC4)nc3)cc2)cc1` [Example 32, 1-(4-(4-(6-((4-(2-hydroxyethyl)piperazin-1-yl)methyl)pyridin-3-yl)benzyl)phenyl)-5-methyl-1H-pyrazole-3-carboxamide], the AC50 with FoxO3a turned out to be 315 nM; with Akt, 647 nM.

As for `Cc1nc(C(N)=O)nn1-c1ccc(Cc2ccc(-c3ccc(CN4CCN(C)CC4)nc3)cc2)cc1` [Example 34, 5-methyl-1-(4-(4-(6-((4-methylpiperazin-1-yl)methyl)pyridin-3-yl)benzyl)phenyl)-1H-1,2,4-triazole-3-carboxamide], the AC50 turned out to be 300 nM with FoxO3a and 576 nM in the assay on Akt.
